BindingDB's records for patent US9458110 (Bristol Myers Squibb, 2016)

Target: Rho-associated protein kinase 1 (Homo sapiens, UniProt Q13464)
Test: In Vitro Assay
Conditions: pH 7.5

Rho-associated protein kinase 1, sequence (Q13464 whole entry): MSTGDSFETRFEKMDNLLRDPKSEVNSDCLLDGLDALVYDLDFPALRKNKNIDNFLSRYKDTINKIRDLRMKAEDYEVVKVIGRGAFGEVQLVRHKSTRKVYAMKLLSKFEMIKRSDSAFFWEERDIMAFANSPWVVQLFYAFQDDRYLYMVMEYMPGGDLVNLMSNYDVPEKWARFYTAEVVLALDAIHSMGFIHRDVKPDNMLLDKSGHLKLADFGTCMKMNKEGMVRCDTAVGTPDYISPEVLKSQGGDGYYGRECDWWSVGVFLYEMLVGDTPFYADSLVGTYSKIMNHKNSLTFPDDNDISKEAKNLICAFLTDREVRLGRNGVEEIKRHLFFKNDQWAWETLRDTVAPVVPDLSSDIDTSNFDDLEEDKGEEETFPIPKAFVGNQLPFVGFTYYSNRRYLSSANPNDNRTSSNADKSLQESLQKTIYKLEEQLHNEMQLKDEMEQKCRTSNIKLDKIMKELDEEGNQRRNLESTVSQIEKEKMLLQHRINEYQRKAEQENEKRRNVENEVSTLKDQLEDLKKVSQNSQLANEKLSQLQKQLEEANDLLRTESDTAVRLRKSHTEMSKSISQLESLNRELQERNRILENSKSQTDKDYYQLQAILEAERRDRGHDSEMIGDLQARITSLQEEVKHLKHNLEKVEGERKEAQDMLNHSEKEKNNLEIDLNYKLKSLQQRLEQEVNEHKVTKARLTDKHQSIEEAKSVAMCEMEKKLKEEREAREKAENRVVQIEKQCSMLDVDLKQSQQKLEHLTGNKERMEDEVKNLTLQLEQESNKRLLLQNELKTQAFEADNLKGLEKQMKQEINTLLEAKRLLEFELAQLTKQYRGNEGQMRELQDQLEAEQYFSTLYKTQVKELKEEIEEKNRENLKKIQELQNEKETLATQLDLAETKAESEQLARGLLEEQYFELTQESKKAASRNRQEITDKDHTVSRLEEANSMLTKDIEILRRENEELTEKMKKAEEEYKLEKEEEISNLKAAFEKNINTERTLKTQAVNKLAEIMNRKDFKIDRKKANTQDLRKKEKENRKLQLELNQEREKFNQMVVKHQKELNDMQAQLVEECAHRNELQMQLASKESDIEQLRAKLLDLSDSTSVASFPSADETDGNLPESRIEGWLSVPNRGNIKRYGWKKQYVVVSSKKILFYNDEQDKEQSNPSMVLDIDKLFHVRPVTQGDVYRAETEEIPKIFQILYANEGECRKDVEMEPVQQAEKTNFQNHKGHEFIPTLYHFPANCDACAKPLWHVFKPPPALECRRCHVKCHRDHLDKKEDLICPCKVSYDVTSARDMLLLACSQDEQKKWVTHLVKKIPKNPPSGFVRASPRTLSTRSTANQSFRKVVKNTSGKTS

Work on CNC(=O)C[C@@H](NC(=O)c1ccc(-c2cn[nH]c2)c(C)c1)c1ccccc1 [US9458110, 252] yielded an IC50 of 0.0411 µM.
